# Results reported in ChEMBL document CHEMBL1201862, “PubChem BioAssay data set” (2004).
#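 Following 48 hours of exposure in 96-well plates, responses at five concentrations were used to interpolate endpoints linearly. The concentration for 50% growth inhibition is given as GI50.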 Active and inactive are the calls of the source. No stated cut-off is given here; in the data, active = GI50 up to about 1.1 µM and inactive = higher.
# Tests used:
# Experiment in all cases: inhibition of tumour cell growth, NCI panel, 48 h
# [1] = tested on: SK-MEL-28
# [2] = tested on: SF-539
# [3] = tested on: M14
# [4] = tested on: U-251
# [5] = tested on: COLO 205
# [6] = tested on: LOX IMVI
# [7] = tested on: SK-OV-3
# [8] = tested on: SK-MEL-2
# [9] = tested on: EKVX
# [10] = tested on: NCI-H226
# [11] = tested on: ACHN
# [12] = tested on: A549
# [13] = tested on: OVCAR-8
# [14] = tested on: UACC-62
# [15] = tested on: KM12
# [16] = tested on: MCF7
# [17] = tested on: HCT-15
# [18] = tested on: SNB-19
# [19] = tested on: HT-29
# [20] = tested on: HOP-92
# [21] = tested on: SR
# [22] = tested on: 786-0
# [23] = tested on: HCC 2998
# [24] = tested on: HL-60
# [25] = tested on: CAKI-1
# [26] = tested on: UACC-257
# [27] = tested on: SN12C
# [28] = tested on: OVCAR-5
# [29] = tested on: OVCAR-3
# [30] = tested on: K562
# [31] = tested on: SW-620
# [32] = tested on: A498
# [33] = tested on: HCT-116
# [34] = tested on: MOLT-4
# [35] = tested on: SK-MEL-5
# [36] = tested on: RXF 393
# [37] = tested on: UO-31
# [38] = tested on: DU-145
# [39] = tested on: TK-10
# [40] = tested on: OVCAR-4
# [41] = tested on: MDA-MB-435
# [42] = tested on: SF-295
# [43] = tested on: NCI/ADR-RES
# [44] = tested on: PC-3
# [45] = tested on: MDA-MB-231
# [46] = tested on: CCRF-CEM
# [47] = tested on: SNB-75
# [48] = tested on: IGROV-1
# [49] = tested on: MDA-N
# [50] = tested on: HOP-62
# [51] = tested on: SF-268
# [52] = tested on: T47D
# [53] = tested on: Hs-578T
# [54] = tested on: NCI-H522
# [55] = tested on: NCI-H460
# [56] = tested on: Malme-3M
# [57] = tested on: RPMI-8226
# [58] = tested on: NCI-H23
compound,measurement,setting,value
CCCCOCn1c(=O)[nH]c(=O)c2cc(Br)ccc21,GI50,[1],> 100 µM (inactive)
same,GI50,[2],> 100 µM (inactive)
same,GI50,[3],87.1 µM (inactive)
same,GI50,[4],95.1 µM (inactive)
same,GI50,[5],72.1 µM (inactive)
same,GI50,[6],58.5 µM (inactive)
same,GI50,[7],> 100 µM (inactive)
same,GI50,[8],40.2 µM (inactive)
same,GI50,[9],22.6 µM (inactive)
same,GI50,[10],12.6 µM (inactive)
same,GI50,[11],14.3 µM (inactive)
same,GI50,[12],48.2 µM (inactive)
same,GI50,[13],31.1 µM (inactive)
same,GI50,[14],42.5 µM (inactive)
same,GI50,[15],36.5 µM (inactive)
same,GI50,[16],42.5 µM (inactive)
same,GI50,[17],44.2 µM
same,GI50,[18],33.2 µM (inactive)
same,GI50,[19],23.4 µM (inactive)
same,GI50,[20],51.1 µM (inactive)
same,GI50,[21],46.2 µM (inactive)
same,GI50,[22],53.3 µM (inactive)
same,GI50,[23],> 100 µM (inactive)
same,GI50,[24],42.5 µM (inactive)
same,GI50,[25],20.8 µM (inactive)
same,GI50,[26],43.9 µM (inactive)
same,GI50,[27],48.1 µM (inactive)
same,GI50,[28],> 100 µM (inactive)
same,GI50,[29],45.9 µM (inactive)
same,GI50,[30],51.8 µM (inactive)
same,GI50,[31],> 100 µM (inactive)
same,GI50,[32],54.6 µM (inactive)
same,GI50,[33],38.5 µM (inactive)
same,GI50,[34],44.1 µM (inactive)
same,GI50,[35],33.1 µM (inactive)
same,GI50,[36],42.3 µM (inactive)
same,GI50,[37],18.5 µM (inactive)
same,GI50,[38],> 100 µM (inactive)
same,GI50,[39],53.5 µM (inactive)
same,GI50,[40],49.3 µM (inactive)
same,GI50,[41],68.2 µM (inactive)
same,GI50,[42],54.6 µM (inactive)
same,GI50,[43],19.1 µM (inactive)
same,GI50,[44],35.2 µM (inactive)
same,GI50,[45],33.8 µM (inactive)
same,GI50,[46],59.4 µM (inactive)
same,GI50,[47],39.7 µM (inactive)
same,GI50,[48],40.6 µM (inactive)
same,GI50,[49],55.2 µM (inactive)
CC1(C)[C@@H](Cn2cc(I)c(=O)[nH]c2=O)CC[C@@]1(C)CO,GI50,[1],> 100 µM (inactive)
same,GI50,[50],> 100 µM (inactive)
same,GI50,[3],> 100 µM (inactive)
same,GI50,[51],> 100 µM (inactive)
same,GI50,[4],> 100 µM (inactive)
same,GI50,[5],> 100 µM (inactive)
same,GI50,[6],> 100 µM (inactive)
same,GI50,[7],> 100 µM (inactive)
same,GI50,[8],> 100 µM (inactive)
same,GI50,[9],> 100 µM (inactive)
same,GI50,[10],> 100 µM (inactive)
same,GI50,[11],> 100 µM (inactive)
same,GI50,[12],> 100 µM (inactive)
same,GI50,[52],> 100 µM (inactive)
same,GI50,[14],> 100 µM (inactive)
same,GI50,[15],> 100 µM (inactive)
same,GI50,[17],> 100 µM
same,GI50,[18],> 100 µM (inactive)
same,GI50,[20],> 100 µM (inactive)
same,GI50,[22],> 100 µM (inactive)
same,GI50,[23],> 100 µM (inactive)
same,GI50,[25],> 100 µM (inactive)
same,GI50,[26],> 100 µM (inactive)
same,GI50,[27],> 100 µM (inactive)
same,GI50,[28],> 100 µM (inactive)
same,GI50,[29],> 100 µM (inactive)
same,GI50,[30],45.1 µM (inactive)
same,GI50,[31],> 100 µM (inactive)
same,GI50,[32],> 100 µM (inactive)
same,GI50,[33],> 100 µM (inactive)
same,GI50,[35],92.9 µM (inactive)
same,GI50,[36],> 100 µM (inactive)
same,GI50,[37],> 100 µM (inactive)
same,GI50,[38],> 100 µM (inactive)
same,GI50,[39],> 100 µM (inactive)
same,GI50,[40],> 100 µM (inactive)
same,GI50,[41],> 100 µM (inactive)
same,GI50,[42],> 100 µM (inactive)
same,GI50,[43],> 100 µM (inactive)
same,GI50,[44],> 100 µM (inactive)
same,GI50,[45],> 100 µM (inactive)
same,GI50,[46],> 100 µM (inactive)
same,GI50,[53],> 100 µM (inactive)
same,GI50,[47],40.3 µM (inactive)
same,GI50,[49],> 100 µM (inactive)
O=C(NCCCn1ccnc1[N+](=O)[O-])C(=O)NCCCn1ccnc1[N+](=O)[O-],GI50,[1],> 100 µM (inactive)
same,GI50,[50],> 100 µM (inactive)
same,GI50,[2],> 100 µM (inactive)
same,GI50,[51],> 100 µM (inactive)
same,GI50,[4],> 100 µM (inactive)
same,GI50,[8],45.2 µM (inactive)
same,GI50,[9],> 100 µM (inactive)
same,GI50,[10],> 100 µM (inactive)
same,GI50,[54],> 100 µM (inactive)
same,GI50,[11],> 100 µM (inactive)
same,GI50,[13],69.2 µM (inactive)
same,GI50,[55],> 100 µM (inactive)
same,GI50,[15],> 100 µM (inactive)
same,GI50,[16],> 100 µM (inactive)
same,GI50,[17],> 100 µM
same,GI50,[56],> 100 µM (inactive)
same,GI50,[19],> 100 µM (inactive)
same,GI50,[21],> 100 µM (inactive)
same,GI50,[22],> 100 µM (inactive)
same,GI50,[57],> 100 µM (inactive)
same,GI50,[23],> 100 µM (inactive)
same,GI50,[24],> 100 µM (inactive)
same,GI50,[26],> 100 µM (inactive)
same,GI50,[27],90.6 µM (inactive)
same,GI50,[28],> 100 µM (inactive)
same,GI50,[29],> 100 µM (inactive)
same,GI50,[30],> 100 µM (inactive)
same,GI50,[33],> 100 µM (inactive)
same,GI50,[34],> 100 µM (inactive)
same,GI50,[58],> 100 µM (inactive)
same,GI50,[39],31.3 µM (inactive)
same,GI50,[42],> 100 µM (inactive)
same,GI50,[44],> 100 µM (inactive)
same,GI50,[46],> 100 µM (inactive)
same,GI50,[53],> 100 µM (inactive)
same,GI50,[47],> 100 µM (inactive)
